We go through 22 molecules from patent US7550485B2, “Substituted N-heterocycle derivatives and methods of their use” (Wyeth, priority 2003, dated 2009).

pEC50: −log10 of the molar value. Counter-ions that a name gives are not always drawn.

As usually defined, the inhibition is the change of the read-out against control, counted positive when it falls. Higher therefore signals strong suppression. Broadly, the pEC50 is the EC50 on a negative log10 scale, so that one unit is a factor of ten. High values mean a low EC50, low ones a high EC50.

The target of the assay is T1, hNET (Homo sapiens, UniProt P23975).
T1 construct: expressed in transfected cells
T1 sequence (P23975 whole entry): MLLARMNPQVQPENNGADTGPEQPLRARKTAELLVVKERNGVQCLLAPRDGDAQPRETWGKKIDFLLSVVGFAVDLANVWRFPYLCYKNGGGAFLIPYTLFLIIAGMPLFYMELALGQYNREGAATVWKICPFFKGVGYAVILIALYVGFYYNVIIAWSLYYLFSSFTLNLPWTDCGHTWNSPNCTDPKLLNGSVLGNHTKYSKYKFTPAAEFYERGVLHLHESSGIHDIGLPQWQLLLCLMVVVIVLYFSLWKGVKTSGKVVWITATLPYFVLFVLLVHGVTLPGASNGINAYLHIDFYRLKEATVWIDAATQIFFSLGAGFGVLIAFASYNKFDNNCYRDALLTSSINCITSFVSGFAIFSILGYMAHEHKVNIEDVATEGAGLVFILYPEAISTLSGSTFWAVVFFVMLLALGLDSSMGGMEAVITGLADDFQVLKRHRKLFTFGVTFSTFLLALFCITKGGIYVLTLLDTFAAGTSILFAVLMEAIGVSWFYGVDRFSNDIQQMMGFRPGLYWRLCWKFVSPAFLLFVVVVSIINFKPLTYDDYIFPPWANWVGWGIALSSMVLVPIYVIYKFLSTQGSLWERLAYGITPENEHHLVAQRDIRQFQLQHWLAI
The experiment in a line: Norepinephrine (NE) uptake assay in MDCK-Net6 cells stably transfected with human hNET. Type of assay: cell-based. The conditions noted are these: [3H]NE uptake; for inhibition at 1 µM: MDCK-Net6, 1 μM test compound; for inhibition at 30 µM: MDCK-Net6, 30 μM test compound (stated in cell); for pEC50: test range 1 to 10,000 nM. The essentials: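 MDCK-Net6 cells preincubated 20 min at 37 °C with compound (1 to 10,000 nM) in HEPES buffer pH 7.4 with pargyline and ascorbate, then 5 min [3H]NE uptake (120 nM final). Lysed cells counted by scintillation; 1 μM desipramine defined minimum uptake; EC50 from logistic fit of pooled data.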

For `CN[C@@H]1CCCN(CC(c2ccc(OCc3ccccc3)c(Cl)c2)C2(O)CCCCC2)C1` (stereo partly drawn) [Example 192, 1-{1-[4-(benzyloxy)-3-chlorophenyl]-2-[(3R)-3-(methylamino)piperidin-1-yl]ethyl}cyclohexanol dihydrochloride], the inhibition at 1 µM was 88.5%.

The molecule `CN[C@H]1CCN(CC(c2ccc(OCc3ccccc3)c(Cl)c2)C2(O)CCCCC2)C1` (stereo partly drawn) [Example 209, 1-{1-[4-(benzyloxy)-3-chlorophenyl]-2-[(3S)-3-(methylamino)pyrrolidin-1-yl]ethyl}cyclohexanol dihydrochloride] gave an inhibition at 1 µM of 98.5%.

On to `CC1CCC(O)(C(CN2CCC(N)CC2)c2cccc(Cl)c2)CC1` (stereo not drawn) [Example 330, 1-[2-(4-aminopiperidin-1-yl)-1-(3-chlorophenyl)ethyl]-4-methylcyclohexanol dihydrochloride], for which the inhibition at 1 µM worked out at 43.9%.

Consider `COC1CCN(CC(c2ccc(OCc3ccccc3)c(Cl)c2)C2(O)CCCCC2)CC1` (stereo not drawn) [Example 339, 1-[1-[4-(benzyloxy)-3-chlorophenyl]-2-(4-methoxypiperidin-1-yl)ethyl]cyclohexanol hydrochloride], for which the inhibition at 30 µM was found to be 94%.

Regarding `OC1([C@H](CN2CCC(N3CCCC3)CC2)c2cccc(OC(F)(F)F)c2)CCCCC1` [Example 365, 1-{(1S)-2-(4-pyrrolidin-1-ylpiperidin-1-yl)-1-[3-(trifluoromethoxy)phenyl]ethyl}cyclohexanol dihydrochloride], the inhibition at 1 µM is 94% and the pEC50 is 7.11.

In turn, `N[C@H]1CCN(CC(c2ccc(OCc3ccccc3)c(Cl)c2)C2(O)CCCCC2)C1` (stereo partly drawn) [Example 210, 1-{2-[(3S)-3-aminopyrrolidin-1-yl]-1-[4-(benzyloxy)-3-chlorophenyl]ethyl}cyclohexanol dihydrochloride] yielded an inhibition at 1 µM of 88.8%.

`COc1ccc(C(CN2CCC(N3CCCC3)CC2)C2(O)CCCCC2)cc1Br` (stereo not drawn) [Example 9, 1-[1-(3-bromo-4-methoxyphenyl)-2-(4-pyrrolidin-1-ylpiperidin-1-yl)ethyl]cyclohexanol dihydrochloride] gave an inhibition at 1 µM of 93% and a negative logarithm of the EC50 (pEC50) of 6.74.

With `NC1CCN(CC(c2ccc(Oc3ccccc3)cc2)C2(O)CCCCC2)CC1` (stereo not drawn) [Example 310, 1-{2-(4-aminopiperidin-1-yl)-1-(4-phenoxyphenyl)ethyl]cyclohexanol dihydrochloride], the inhibition at 1 µM was determined as 44.1%.

Regarding `CNC1CCN(C[C@H](c2cccc(Cl)c2)C2CCCCC2)CC1` (single isomer, unassigned) [Example 355, dihydrochloride], 1 µM produced 71% inhibition and the pEC50 was 6.14.

`OC1(C(CN2CCC(N3CCOCC3)CC2)c2cccc(OC(F)(F)F)c2)CCCCC1` (stereo not drawn) [Example 361, 1-{2-(4-morpholin-4-ylpiperidin-1-yl)-1-[3-(trifluoromethoxy)phenyl]ethyl}cyclohexanol dihydrochloride] had an inhibition at 1 µM of 67% and a negative-log EC50 (pEC50) of 6.19.

On to `CN(C)[C@@H]1CCCN(CC(c2cccc(OC(F)(F)F)c2)C2(O)CCCCC2)C1` (stereo partly drawn) [Example 188, 1-{2-[(3R)-3-(dimethylamino)piperidin-1-yl]-1-[3-(trifluoromethoxy)phenyl]ethyl}cyclohexanol dihydrochloride], for which the inhibition at 1 µM is 17.6%.

As to `OC1(C(CN2CCC(N3CCCC3)CC2)c2ccc3ccccc3c2)CCCCC1` (stereo not drawn) [Example 31, 1-[1-(2-naphthyl)-2-(4-pyrrolidin-1-ylpiperidin-1-yl)ethyl]cyclohexanol dihydrochloride], the inhibition at 1 µM was found to be 70% and the negative logarithm of the EC50 (pEC50) is 7.30.

In turn, `CN[C@@H]1CCN(CC(c2ccc(OCc3ccccc3)cc2)C2(O)CCCCC2)C1` (stereo partly drawn) [Example 382, 1-{1-[4-(benzyloxy)phenyl]-2-[(3R)-3-(methylamino)pyrrolidin-1-yl]ethyl}cyclohexanol dihydrochloride] had an inhibition at 1 µM of 50%.

`CN(C)[C@@H]1CCN(CC(c2ccc(OCc3ccccc3)cc2)C2(O)CCCCC2)C1` (stereo partly drawn) [Example 381, 1-{1-[4-(benzyloxy)phenyl]-2-[(3R)-3-(dimethylamino)pyrrolidin-1-yl]ethyl}cyclohexanol dihydrochloride] showed an inhibition at 30 µM of 95%.

In turn, `COc1cc(C(CN2CCC(N(C)C)CC2)C2(O)CCCCC2)ccc1OCc1ccccc1` (stereo not drawn) [Example 451, 1-{1-[4-(benzyloxy)-3-methoxyphenyl]-2-[4-(dimethylamino)piperidin-1-yl]ethyl}cyclohexanol dihydrochloride] came in with an inhibition at 1 µM of 79%.

In the case of `NC1CCN(CC(c2ccc(Cl)c(Cl)c2)C2(O)CCCCC2)CC1` (stereo not drawn) [Example 14, 1-[2-(4-aminopiperidin-1-yl)-1-(3,4-dichlorophenyl)ethyl]cyclohexanol dihydrochloride], the inhibition at 1 µM is 84% and the pEC50 is 7.05.

For the molecule `CN[C@H]1CCN(CC(c2ccc(OCc3ccccc3)cc2)C2(O)CCCCC2)C1` (stereo partly drawn) [Example 212, 1-{1-[4-(benzyloxy)phenyl]-2-[(3S)-3-(methylamino)pyrrolidin-1-yl]ethyl}cyclohexanol dihydrochloride], the inhibition at 1 µM stood at 84.8%.

`CNC1CCN(CC(c2ccc(OC)c(Br)c2)C2(O)CCCCC2)CC1` (stereo not drawn) [Example 29, 1-{1-(3-bromo-4-methoxyphenyl)-2-[4-(methylamino)piperidin-1-yl]ethyl}cyclohexanol dihydrochloride] gave an inhibition at 1 µM of 79% and a negative-log EC50 (pEC50) of 6.82.

`CN(C)[C@H]1CCN(CC(c2ccc3ccccc3c2)C2(O)CCCCC2)C1` (stereo partly drawn) [Example 205, 1-[2-[(3S)-3-(dimethylamino)pyrrolidin-1-yl]-1-(2-naphthyl)ethyl]cyclohexanol dihydrochloride] gave an inhibition at 1 µM of 39.5%.

The molecule `N[C@H]1CCN(CC(c2cccc(Cl)c2)C2(O)CCCCC2)C1` (stereo partly drawn) [Example 16, 1-[2-[(3S)-3-aminopyrrolidin-1-yl]-1-(3-chlorophenyl)ethyl]cyclohexanol dihydrochloride] gave an inhibition at 1 µM of 89% and a pEC50 of 6.92.

Molecule `N[C@@H]1CCN(CC(c2ccc(OCc3ccccc3)cc2)C2(O)CCCCC2)C1` (stereo partly drawn) [Example 380, 1-{2-[(3R)-3-aminopyrrolidin-1-yl]-1-[4-(benzyloxy)phenyl]ethyl}cyclohexanol dihydrochloride] returned an inhibition at 1 µM of 20%.

With `OC1CCN(CC(c2ccc(OCc3ccccc3)c(Cl)c2)C2(O)CCCCC2)CC1` (stereo not drawn) [Example 241, 1-[2-[4-(benzyloxy)-3-chlorophenyl]-2-(1-hydroxycyclohexyl)ethyl]piperidin-4-ol hydrochloride], at 1 µM the inhibition was 72.5%.
